Results: PMC13286573, “Exploration of precision coregulator TR-FRET identifies diverse signatures for LXR ligands relevant to discovery of nonlipogenic ABCA1 inducers” (eLife, 2026)
Entries after “also recorded” stand apart in the source; their conditions may differ.

Columns and labels:
LXRβ [1] = target: T1, LXRβ (Homo sapiens, UniProt P55055); assay: NCOR2 corepressor binding to LXRβ, CRT; assay type: biochemical; design: The CRT selectivity assay incorporates GST-tagged LXR-LBD; purchased Thermo Fisher Scientific PV4660; conditions: for activity at 1 µM: read-out: NCOR2β, relative % activity at 1 μM
T1 sequence (P55055 222-460 limits assumed): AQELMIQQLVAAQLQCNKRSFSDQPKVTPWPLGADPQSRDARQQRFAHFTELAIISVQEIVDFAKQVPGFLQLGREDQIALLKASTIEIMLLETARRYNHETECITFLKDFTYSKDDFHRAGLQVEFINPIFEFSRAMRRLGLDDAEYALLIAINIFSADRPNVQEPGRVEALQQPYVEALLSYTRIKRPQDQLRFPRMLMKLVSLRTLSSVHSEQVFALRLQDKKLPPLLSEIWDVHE

PXR = target: T2, PXR (Homo sapiens, UniProt O75469); assay: Coactivator SRC1-4 recruitment Lanthascreen PXR; assay type: biochemical; conditions: benchmark SR12813
T2 sequence (O75469 146-433 limits assumed): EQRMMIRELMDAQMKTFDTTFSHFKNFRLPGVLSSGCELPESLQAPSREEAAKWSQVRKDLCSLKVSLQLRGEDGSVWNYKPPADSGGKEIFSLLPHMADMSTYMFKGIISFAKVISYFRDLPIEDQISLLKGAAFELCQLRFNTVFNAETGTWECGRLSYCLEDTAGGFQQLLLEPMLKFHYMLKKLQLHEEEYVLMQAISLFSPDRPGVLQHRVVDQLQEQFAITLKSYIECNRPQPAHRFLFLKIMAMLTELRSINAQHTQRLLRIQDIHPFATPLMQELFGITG

LXRα [2] = target: T3, LXRα (Homo sapiens, UniProt Q13133); design: The CRT selectivity assay incorporates GST-tagged LXR-LBD; purchased Thermo Fisher Scientific PV4657; method as in Albers et al., 2006; conditions: >1 µM; ref Albers et al., 2006; cited from earlier work
T3 sequence (Q13133 209-447 limits assumed): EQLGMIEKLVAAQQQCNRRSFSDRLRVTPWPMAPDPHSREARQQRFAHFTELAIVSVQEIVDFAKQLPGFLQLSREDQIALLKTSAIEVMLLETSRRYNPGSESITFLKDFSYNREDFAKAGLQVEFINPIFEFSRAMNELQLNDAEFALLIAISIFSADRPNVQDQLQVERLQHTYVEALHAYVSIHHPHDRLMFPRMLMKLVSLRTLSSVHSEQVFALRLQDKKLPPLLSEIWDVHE

LXR [3] = assay: Multiplex precision CRT (pCRT), SRC1 and NCOR2, LXR isoform not specified; assay type: biochemical; conditions: pCRT versus monoplex CRT
LXRβ [4] = target: T1, LXRβ; assay: SRC-1 coactivator recruitment to LXRβ, coregulator TR-FRET (CRT); assay type: biochemical; design: The CRT selectivity assay incorporates GST-tagged LXR-LBD; purchased Thermo Fisher Scientific PV4660
C57Bl/6 mice = system: C57Bl/6 mice; design: method as in Miao et al., 2004; conditions: ref Miao et al., 2004, cited from earlier work
LXRα [5] = target: T3, LXRα; assay: NCOR2 corepressor binding to LXRα, CRT; assay type: biochemical; design: The CRT selectivity assay incorporates GST-tagged LXR-LBD; purchased Thermo Fisher Scientific PV4657; conditions: for activity at 1 µM: ligand 1 µM, interpolated from concentration-response, normalized, heat map Figure 9A, read-out: NCOR2α, relative % activity at 1 μM
cynomolgus monkeys = system: cynomolgus monkeys; design: method as in Groot et al., 2005; conditions: ref Groot et al., 2005; cited from earlier work
LXRβ [6] = target: T1, LXRβ; assay: SMRT2 corepressor binding to LXRβ, CRT; assay type: biochemical; design: The CRT selectivity assay incorporates GST-tagged LXR-LBD; purchased Thermo Fisher Scientific PV4660; conditions: read-out: SMRT2β, relative % activity at 1 μM
Hamsters = system: Hamsters; design: method as in Groot et al., 2005; conditions: ref Groot et al., 2005; cited from earlier work
LXRα [7] = target: T3, LXRα; assay: SMRT2 corepressor binding to LXRα, CRT; assay type: biochemical; design: The CRT selectivity assay incorporates GST-tagged LXR-LBD; purchased Thermo Fisher Scientific PV4657; conditions: ligand 1 µM, interpolated from concentration-response, normalized; heat map Figure 9A; read-out: SMRT2α, relative % activity at 1 μM
[8] = system: sterol response element (SRE); assay: SRE-luc reporter assay in HepG2 cells; assay type: cell-based, human; conditions: concentrations ≤1 µM
Procedure, shortened: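 HepG2 cells stably carrying an SRE (LDLR) promoter–NlucP reporter, grown in medium with charcoal-stripped FBS. Treated with compounds for 24 hr at 37 °C, then lysed and nanoluciferase luminescence read.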

LXR [9] = assay: Corepressor (NCOR2, SMRT2) binding to LXR, CRT, statements across isoforms; assay type: biochemical; conditions: monoplex CRT, absence of coactivator
LXRβ [10] = target: T1, LXRβ; assay: Multiplex precision CRT (pCRT), SRC1 and NCOR2, LXRβ; assay type: biochemical; design: The CRT selectivity assay incorporates GST-tagged LXR-LBD; purchased Thermo Fisher Scientific PV4660; conditions: presence of SRC1
human volunteers = conditions: 2016, cited from earlier work
LXRα [11] = target: T3, LXRα; assay: Multiplex precision CRT (pCRT), SRC1 and NCOR2, LXRα; assay type: biochemical; design: The CRT selectivity assay incorporates GST-tagged LXR-LBD; purchased Thermo Fisher Scientific PV4657; conditions: presence of SRC1, saturating ligand
LXR [12] = system: LXR; design: method as in Belorusova et al., 2019; conditions: ref Belorusova et al., 2019; cited from earlier work
ABCA1 = assay: ABCA1-luc reporter assay in CCF-STTG1 astrocytoma cells; assay type: cell-based, human
Source text: Astrocytoma CCF-STTG1 cells, stably transfected with an ABCA1-promoter linked to a luciferase response element, provide a model for ABCA1 induction in astrocytes ([Ben Aissa et al., 2021]). […] Apparent inverse agonist activity in cell-based assays can result from ‘true’ inverse agonist recruitment of corepressors or from antagonist activity towards endogenous sterol LXR agonists. Although we use serum-stripped media, antagonism of endogenous LXR agonists cannot be ruled out.
Low passage CCF-STTG1 cells (20,000 cells/well) were seeded in 96-well plates in media containing charcoal-stripped FBS and incubated at 37 °C and 5% CO2 for 24 hr prior to a 24 hr treatment. All compounds were dissolved in DMSO, and final DMSO concentrations never exceeded 1%. After a 24 hr incubation period, add a volume of ONE-GLOEX Reagent that is equal to the volume of culture medium in each well and incubate for 3–5 min on the shaker. The luminescent activity of compounds ([…], 10-fold dilution) was examined using the ONE-GLOEX assay (Promega). […] The assays were performed in duplicates for each concentration, and the EC50 values were determined from non-linear regression analysis of the dose-response curve generated in GraphPad Prism 9.

[13] = ligand 1 µM, interpolated from concentration-response, normalized, heat map Figure 9A

Compound: O=C(O)Cc1cccc(OCCCN(Cc2cccc(C(F)(F)F)c2Cl)CC(c2ccccc2)c2ccccc2)c1 [GW3965]
- Effect on NCOR2 binding to LXRβ (LXRβ [1]; monoplex CRT, absence of SRC1): displacement of NCOR2 from both LXR isoforms
- activity at 1 µM (LXRβ [1]): 92.3%
- PXR agonism/binding in CRT (PXR): no binding to PXR
- Recruitment of NCOR1 to LXRα (LXRα [2]): Weak recruitment of NCOR1 to LXRα
- Left-shift in the NCOR2 displacement curve in presence of SRC1 (LXR [3]): 100 fold
- SRC1β, relative % activity at 1 μM (LXRβ [4]): 95.64%
- Liver weight and TGs (C57Bl/6 mice; 3 days treatment, GW3965 even at 100 mg/kg/day): no effect on these liver markers
- SREBP1c and FAS expression in the liver (C57Bl/6 mice; 3 days treatment): minimal increases in SREBP1c and FAS expression in the liver
- ABCA1 expression in peripheral macrophages (C57Bl/6 mice): sevenfold
- ABCA1 expression in the small intestine (C57Bl/6 mice): eightfold
- activity at 1 µM (LXRα [5]): 99.1%
- Effect on NCOR2 binding to LXRα (LXRα [5]; monoplex CRT, absence of SRC1): displacement of NCOR2 from both LXR isoforms
- Plasma LDL, HDL and TG (cynomolgus monkeys): increased LDL and HDL at 7 days treatment only, with no effect on TG
- activity at 1 µM (LXRβ [6]): 92.5%
- Plasma TG, LDL-C and VLDL-C (Hamsters): dose-dependent increase
- activity at 1 µM (LXRα [7]): 92.4%

Compound: CC(C)(O)c1cn(-c2ccc(-c3cc(F)c(CO)c(S(C)(=O)=O)c3)cc2F)c(C(C)(C)c2c(Cl)cccc2Cl)n1 [XL041]
- activity at 1 µM (LXRβ [1]; [13]): 129%
- Efficacy of SRE activation at concentrations ≤1 µM [8]: 20–25 % of T0
- Corepressor (NCOR2, SMRT2) displacement or stabilization, across LXR isoforms (LXR [9]): stabilized LXR complexes with corepressor bound; also recorded: strongly stabilized the corepressor-bound conformation
- NCOR2 displacement from LXRβ in pCRT (LXRβ [10]): fully displaced
- Cmax (human volunteers; human, 2.5 mg/kg p.o., Day 14, ref Kirchgessner et al., read-out: Cmax, drug concentration in plasma): ~30 nM
- T½ (human volunteers; human, ref Kirchgessner et al.): ≈ 13 hr
- Adverse effects in clinical trials (human volunteers; multi-day dosing, healthy and statin-treated subjects, ref Kirchgessner et al.): elevated plasma and liver lipids and neutropenia
- ABCA1 expression in trial subjects (human volunteers; ref Katz et al., 2009, Kirchgessner et al.): increased ABCA1 expression in trial subjects
- EC50 (LXRβ [4]; biotin-SRC-1 CRT, read-out: Potency (EC50) for SRC-1 recruitment to LXRβ): 10 nM
- Maximal signal for NCOR2-bound LXRα in pCRT (LXRα [11]): significantly higher than zero
- activity at 1 µM (LXRα [5]): 142%
- activity at 1 µM (LXRβ [6]; [13]): 153%
- activity at 1 µM (LXRα [7]): 152%
- Ligand behaviour in HDX-MS analysis (H12 conformation) (LXR [12]): act as an antagonist
- Selectivity for ABCA1 induction versus SRE activation (potency correlation outliers) (ABCA1; CCF ABCA1-luc versus HepG2 SRE-luc): selectivity for ABCA1 induction
- ABCA1 induction response/phenotype in CCF cells (ABCA1; normalized to T0): partial agonist response
